In patent publication US4997926A, “Deaminase-stable anti-retroviral 2-halo-2',3'-dideoxy” (Scripps Clinic and Research Foundation, priority 1987, dated 1991):
Read-outs that look alike come from different tables or passages of the source.

What was measured:
in vitro = in vitro ADME, human; details: human, cem cell culture medium
Experimental: (§1) Under the same condition, only about 2 percent of [2',3'-^3 H]-2'3'-dideoxyadenosine remained in the medium after 4 hours culture.
(§2) ^1 Human CEM T lymphoblasts at a density of 2 × 10^7
(§3) cells/ml were incubated for 4 hours at 37 degrees C. with either 3 uM
(§4) [8^3 H2-chloro- 2',3dideoxyadenosine, or 2 uM [2',3^3
(§5) H2',3dideoxyadenosine or 2 uM [2',3^3 H2',3dideoxyinosine. Then the
(§6) dideoxynucleosides in the cultures were quantitated after separation by
(§7) HPLC. In these studies, the intracellular dideoxynucleotide content after
(§8) The human T lymphoblastoid cell line, CCRF-CEM, and mutants deficient in either deoxycytidine kinase (clone AraC-8D), or deoxycytidine kinase plus adenosine kinase (clone AraC-8DM10-5) were obtained and propagated as described previously [Foley et al., (1965) Cancer, 18:552-529 and Hershfield et al., (1982) J. Biol. Chem., 257:6380-6386]. For metabolic studies, the cells were cultured in RPMI 1640 medium supplemented with 2 mM L-glutamine and 10 percent fetal bovine serum at a density of 2×10^7 cells/ml in the presence of radiolabelled dideoxynucleosides, as indicated earlier. Some cultures were pre-incubatedfor 30 minutes either with 5 uM 2'-deoxycoformycin or 50 uM coformycin. After 4 hours of incubation the cells were harvested by centrifugation.
(§9) The radioactive compounds in the culture medium were fractionated by thin layer chromatography. Ten microliter (ul) aliquots of medium were spotted directly on cellulose plates and developed with 1 M ammonium acetate pH 7.4. […] The respective spots were cut out and radioactivity was determined by liquid scintillation spectrometry. The identities of the spots were also confirmed by cochromatography of the radioactive counts with authentic compounds on a C18 uBondapak column, that was eluted as described above.

HIV in MDM cells = test: Synthesis of HIV p24 (gag) antigen in monocyte derived macrophages (MDM), 3-day assay; assay type: cell-based; details: 0.1-100 uM
Text: The ability of AZT, ddC and ddA to inhibit synthesis of the p24 (gag) antigen of HIV in CEM and MDM cells was also examined. For CEM cells, the results for all three compounds were similar to those discussed in Mitsuya et al. (1987) Nature, 325:773-778 with ddC providing the most inhibitory effect at the lowest concentration, followed by AZT, followed by ddA in a 3-day assay.

[1] = tested on: HIV in PHA-stimulated lymphocytes; test: HIV-infected PHA-stimulated lymphocytes, antigen ELISA of supernate, positive cultures; assay type: cell-based; details: 10 uM, ten cultures, ELISA OD490
Experimental: The activities of 2-halo-2',3'-dideoxyadenosine (2-F-,2-Cl- or 2-Br-ddA) derivatives were compared to those of 2-fluoro- and 2-chloro-2',3'-dideoxyinosine (2-F- and 2-Cl-ddI) and 2',3-dideoxyadenosine (ddA) against HIV-infected, antigen ELISA assay described herein.
The PHA-stimulated lymphocytes were suspended in media containing cell-free HIV, and were incubated overnight (about 18 hours). The cells were thereafter pelleted resuspended in a growth medium as pharmacologically acceptable carrier containing one of the above compounds at a 10 uM concentration, or with no added compound as a control, and plated at 10^5 cells per microculture; the medium was also supplemented with interleukin-2. The release of virus into the supernate was measured by ELISA at 4, 8 and 12 days, post-inoculation. Each microculture plate also contained ten virus-free cultures that served as further controls. Ten cell cultures were used for each compound.
Cultures were scored positive if the optical density in the ELISA (OD490) was greater than two standard deviations above the readings for the virus-free cultures. This method is adapted from that of McDougal et al. (1985) J. Immunol. 135:3151.

HIV in ATH8 cells = details: HIV-infected ATH8 cells; read-out: Concentration providing a 50 percent protection level against the cytopathic effect of HIV; cited from earlier work
uninfected ATH8 cells = details: normal, read-out: Dose required to reduce the viability by 50 percent; cited from earlier work
[2] = tested on: HIV in deoxycytidine kinase-deficient CEM variant; test: HIV p24 (gag) antigen in deoxycytidine kinase deficient CEM variant; assay type: cell-based
Text: Open symbols show the effects of the respective same dideoxynucelosides on HIV replication in a deoxycytidine kinase-deficient CEM variant.
HIV infection of the CEM T lymphoblastoid cell line was monitored by the release of the HIV p24 (gag) protein into the medium, exactly as described previously [Cleveland et al. (1987) J. Clin. Microbiol., 25:416-420 and Fishbein et al. (1981) Biochem. Med., 26:377-386]. The growth inhibiting effects of the nucleosides toward CEM lymphoblasts, and toward the deoxycytidine kinase deficient mutant, were also monitored as described earlier [Carson et al. (1980) Proc. Natl. Acad. Sci. USA, 77:6865-6869].

[3] = target: T1, calf intestinal adenosine deaminase (Bos taurus, UniProt P56658); test: Metabolism by adenosine deaminase (spectrophotometric deamination, Lineweaver-Burke); assay type: biochemical
T1 sequence (P56658 1-363): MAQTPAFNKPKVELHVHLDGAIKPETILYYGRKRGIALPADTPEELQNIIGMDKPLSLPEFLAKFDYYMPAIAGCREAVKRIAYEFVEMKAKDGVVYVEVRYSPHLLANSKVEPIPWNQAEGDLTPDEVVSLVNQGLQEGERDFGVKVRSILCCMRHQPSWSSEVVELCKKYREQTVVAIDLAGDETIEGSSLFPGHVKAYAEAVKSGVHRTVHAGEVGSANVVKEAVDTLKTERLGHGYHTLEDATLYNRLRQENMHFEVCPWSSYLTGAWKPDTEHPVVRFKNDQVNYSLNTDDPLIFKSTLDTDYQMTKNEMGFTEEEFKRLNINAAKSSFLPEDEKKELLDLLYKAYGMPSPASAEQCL
Experimental: ^1 The indicated nucleosides at concentrations from 5-200 uM were
incubated at 18-20° C. with 0.01 EU/ml calf intestinal adenosine
deaminase in 10 mM sodium phosphate, pH 7.5. Deamination was monitored
spectrophotometrically at 265 nanometers (nm) and 250 nm, as described
The individual nucleosides, at concentrations from 5-200 uM in 10 mM sodium phosphate, pH 7.5, were incubated at 18-20 degrees C. with 0.01 EU/ml calf intestinal adenosine deaminase. The change in the optical density at 265 nm and 250 nm was monitored spectrophotometrically.

CEM T lymphoblasts = test: in vitro; assay type: in vitro ADME, human
Experimental: as §1, §2, §3, §4, §5, §6, §7, §8, §9

In the case of Nc1ncnc2c1ncn2[C@H]1CC[C@@H](CO)O1 [2',3'-dideoxyadenosine, reference compound], the remaining at 4 h, 2 µM (in vitro) is reported as roughly 2%, the “inhibition of p24 (gag) production from MDM cells” value (HIV in MDM cells) is reported as “none of those compounds provided any inhibition” and the “positive cultures on day 4” value [1] is reported as “no positives”. For the same compound, the “positive cultures on day 8” value [1] was 100%, the “positive cultures on day 12” value [1] was 100% and the EC50 (HIV in ATH8 cells) was 2700 nM. The CC50 (uninfected ATH8 cells) was greater than 500 µM, the “protection from HIV infection, p24 (gag) antigen detection” value [2] was “equivalent anti-HIV activity” and the “Relative Efficiency (ratio of Vmax/Km)” value ([3]; relative efficiency of deamination) was 3.52.
In the case of Nc1nc(Cl)nc2c1ncn2[C@H]1CC[C@@H](CO)O1 [2-chloro-2',3'-dideoxyadenosine], the Catabolism (CEM T lymphoblasts; Addition none, 4 hours, 37 degrees C., 2-3 uM) is reported as 40 pmols/hr 10^8 cells, the “deamination by CEM cells” value (CEM T lymphoblasts; radiolabelled compound, medium of CEM cell cultures) is reported as “did not significantly deaminate” and the “Relative Efficiency (ratio of Vmax/Km)” value [3] is reported as 0.04.
